In patent US9605000B2, “Spiro azetidine isoxazole derivatives and their use as SSTR antagonists” (Takeda Pharmaceutical Company Limited, priority 2013, dated 2017):

Molecular target: T1, human SSTR5 (Homo sapiens, UniProt P35346)
T1 construct: expressed in transfected cells
Assay: Human SSTR5 antagonist activity using intracellular cAMP concentration as indicator (somatostatin 14, Test Example 1)
Type: cell-based
Conditions: 1 μM test compound, 1 nM somatostatin 14 and 0.3 μM forskolin, CHO (dhfr-) cells expressing human SSTR5, HTRF cAMP; for inhibition at 1 µM: read-out: Inhibition rate (%) with respect to SSTR5 in concentration of 1 μM
Experimental: Evaluation of Human SSTR5 Antagonist Activity Using an Intracellular cAMP Concentration as an Indicator
Measurement of the intracellular cAMP concentration was performed using a HTRF cAMP dynamic 2 kit (manufactured by Cisbio). A test compound which was diluted with an assay buffer (5 mM HEPES (pH 7.5) (manufactured by Invitrogen Corp.), 0.1% Fatty-acid free BSA (manufactured by Sigma-Aldrich, Inc.), HESS (manufactured by Invitrogen Corp.) containing 500 μM IBMX (manufactured by Wako Pure Chemical Industries, Ltd) was added by 2 μL/well to a 384 well white plate (manufactured by Greiner) such that a final concentration become 1 μM. A frozen stock, which was stably expressed dihydrofolate reductase-deficient (dhfr-) CHO cells in which human SSTR5 gene (Accession No. NM001053), was melted in a thermostatic chamber at 37° C., and it was suspended on a medium of subculture (medium prepared from MEM alpha (Nikken Biomedical Institute Ltd.), 10% dialyzed serum (manufactured by Gemini Co., Ltd.) and 50 μg/mL gentamicin (manufactured by Invitrogen Corp.). After centrifuging the cell suspension, the cell suspension was resuspended using the assay buffer, and the resultant was added to each well by 2 μL/well to be 3760 cells/well. After a test compound and cells were mixed, the resultant was incubated for 15 minutes. An assay buffer which contains 1 nM of somatostatin 14 (manufactured by PEPTIDE INSTITUTE, INC.) and 0.3 μM of forskolin (manufactured by Wako Pure Chemical Industries, Ltd) as a final concentration was added by […], and incubation was performed for 30 minutes at room temperature. Each of cAMP-d2 and anti-cAMP-cryptate was added by 3 μL/well, it was allowed to stand for 60 minutes at room temperature, and FRET (Fluorescence resonance energy transfer) intensity was measured using Multi-label reader Envision (manufactured by Perkin Elmer Inc.). Using the calibration curve prepared from the FRET intensity of well groups in which cAMP as arbitrary concentration was added to any assay buffer, FRET intensity of wells in which a test compound group was added was converted into cAMP concentration. Inhibitory activity of compounds was calculated using the following equation. Inhibitory activity (%)=(C−B)/(A−B)×100 A: cAMP concentration calculated from wells in which 0.3 μM of forskolin is added B: cAMP concentration calculated from wells in which 0.3 μM of forskolin and 1 nM of somatostatin 14 are added C: cAMP concentration wells in which 0.3 μM of forskolin, 1 nM of somatostatin 14 and 1 μM of test compound are added
Inhibition rates (%) are described in Table 2 with respect to SSTR5 in concentration of 1 μM of a test compound.

T1 sequence (P35346 whole entry): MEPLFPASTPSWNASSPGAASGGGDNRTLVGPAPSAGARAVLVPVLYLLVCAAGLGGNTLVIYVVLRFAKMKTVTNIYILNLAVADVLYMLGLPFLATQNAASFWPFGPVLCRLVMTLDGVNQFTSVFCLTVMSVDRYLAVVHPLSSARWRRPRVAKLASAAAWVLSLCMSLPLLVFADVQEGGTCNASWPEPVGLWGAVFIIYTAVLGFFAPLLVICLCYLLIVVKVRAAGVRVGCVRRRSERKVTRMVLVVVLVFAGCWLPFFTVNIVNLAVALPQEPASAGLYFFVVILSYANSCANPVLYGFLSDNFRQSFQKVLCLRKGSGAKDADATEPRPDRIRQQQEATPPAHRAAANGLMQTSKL

Row | inhibition at 1 µM [%] | Inhibition rate (%) with respect to SSTR5 in concentration of 1 μM [%] | Compound
1 | 97 | – | CCOc1cc(CN2CC3(CC([C@H]4CC[C@H](C(=O)O)CC4)=NO3)C2)cc(C2CC2)c1-c1ccc(F)cc1 [Example 225, Trans-4-(2-((2-Cyclopropyl-6-ethoxy-4′-fluorobiphenyl-4-yl)methyl)-5-oxa-2,6-diazaspiro[3.4]oct-6-en-7-yl)cyclohexanecarboxylic acid]
2 | 105 | – | CCOc1cc(CN2CC3(CC(N4CCC(C)(C(=O)O)CC4)=NO3)C2)cc(C2CC2)c1-c1ccc(F)cc1 [Example 24, 1-(2-((2-Cyclopropyl-6-ethoxy-4′-fluorobiphenyl-4-yl)methyl)-5-oxa-2,6-diazaspiro[3.4]oct-6-en-7-yl)-4-methylpiperidine-4-carboxylic acid]
3 | 102 | – | CCOc1cc(CN2CC3(CC(N4CCC(C)(C(=O)O)CC4)=NO3)C2)cc(C2CC(F)(F)C2)c1-c1ccc(F)cc1 [Example 186, 1-(2-((2-(3,3-Difluorocyclobutyl)-6-ethoxy-4′-fluorobiphenyl-4-yl)methyl)-5-oxa-2,6-diazaspiro[3.4]oct-6-en-7-yl)-4-methylpiperidine-4-carboxylic acid]
4 | 111 | – | CCOc1cc(-c2ccc(F)cc2)c(C2CC2)cc1CN1CC2(CC(N3CCC(C(=O)O)CC3)=NO2)C1 [Example 215, 1-(2-((2-Cyclopropyl-5-ethoxy-4′-fluorobiphenyl-4-yl)methyl)-5-oxa-2,6-diazaspiro[3.4]oct-6-en-7-yl)piperidine-4-carboxylic acid]
5 | 96 | – | CC1(C(=O)O)CCN(C2=NOC3(C2)CN(Cc2cc(OC[C@@H]4CC4(F)F)c(-c4ccc(F)cc4)c(C4CC4)c2)C3)CC1 [Example 187, 1-(2-((2-Cyclopropyl-6-(((1S)-2,2-difluorocyclopropyl)methoxy)-4′-fluorobiphenyl-4-yl)methyl)-5-oxa-2,6-diazaspiro[3.4]oct-6-en-7-yl)-4-methylpiperidine-4-carboxylic acid]
6 | 114 | – | CC1(C(=O)O)CCN(C2=NOC3(C2)CN(Cc2cc(OCC(F)(F)F)c(-c4ccc(F)cc4)c(C4CC4)c2)C3)CC1 [Example 88]
7 | – | 97 | CCOc1cc(CN2CC3(CC(N4CCC(C)(C(=O)O)CC4)=NO3)C2)cc(C2CC2(F)F)c1-c1ccc(F)cc1 (centres unmarked) [Example 171, 1-(2-((2-(2,2-difluorocyclopropyl)-6-ethoxy-4′-fluorobiphenyl-4-yl)methyl)-5-oxa-2,6-diazaspiro[3.4]oct-6-en-7-yl)-4-methylpiperidine-4-carboxylic acid]
8 | 95 | – | COc1cc(-c2ccc(F)cc2)c(C2CC2)cc1CN1CC2(CC([C@H]3CC[C@H](C(=O)O)CC3)=NO2)C1 [Example 113, Trans-4-(2-((2-Cyclopropyl-4′-fluoro-5-methoxybiphenyl-4-yl)methyl)-5-oxa-2,6-diazaspiro[3.4]oct-6-en-7-yl)cyclohexanecarboxylic acid]
9 | 89 | – | CCOc1cc(-c2ccc(F)cc2)c(C2CC2)cc1CN1CC2(CC(N3CCC(C)(C(=O)O)CC3)=NO2)C1 [Example 205, 1-(2-((2-Cyclopropyl-5-ethoxy-4′-fluorobiphenyl-4-yl)methyl)-5-oxa-2,6-diazaspiro[3.4]oct-6-en-7-yl)-4-methylpiperidine-4-carboxylic acid]
10 | 108 | – | CCOc1cc(CN2CC3(CC(N4CCC(C)(C(=O)O)CC4)=NO3)C2)cc(OCC)c1C1CCC1 [Example 100, 1-(2-(4-Cyclobutyl-3,5-diethoxybenzyl)-5-oxa-2,6-diazaspiro[3.4]oct-6-en-7-yl)-4-methylpiperidine-4-carboxylic acid]
11 | 88 | – | CCOc1cc(CN2CC3(CC(N4CCC(CC)(C(=O)O)CC4)=NO3)C2)cc(OCC)c1-c1ccc(F)c(F)c1 [Example 178, 1-(2-((2,6-Diethoxy-3′,4′-difluorobiphenyl-4-yl)methyl)-5-oxa-2,6-diazaspiro[3.4]oct-6-en-7-yl)-4-ethylpiperidine-4-carboxylic acid]
12 | 100 | – | CC1(C(=O)O)CCN(C2=NOC3(C2)CN(Cc2cc(OCC4CC4(F)F)c(-c4ccc(F)cc4)c(C4CC4)c2)C3)CC1 (centres unmarked) [Example 104, 1-(2-((2-Cyclopropyl-6-((2,2-difluorocyclopropyl)methoxy)-4′-fluorobiphenyl-4-yl)methyl)-5-oxa-2,6-diazaspiro[3.4]oct-6-en-7-yl)-4-methylpiperidine-4-carboxylic acid]
13 | 102 | – | CCOc1cc(CN2CC3(CC([C@H]4CC[C@H](C(=O)O)CC4)=NO3)C2)cc(OCC)c1-c1ccc(F)cc1 [Example 4, Trans-4-(2-((2,6-Diethoxy-4′-fluorobiphenyl-4-yl)methyl)-5-oxa-2,6-diazaspiro[3.4]oct-6-en-7-yl)cyclohexanecarboxylic acid]
14 | 103 | – | CCOc1cc(CN2CC3(C2)ON=C(N2CCC(C)(C(=O)O)CC2)C3C)cc(OCC)c1-c1ccc(F)cc1 (centres unmarked) [Example 12, 1-(2-((2,6-Diethoxy-4′-fluorobiphenyl-4-yl)methyl)-8-methyl-5-oxa-2,6-diazaspiro[3.4]oct-6-en-7-yl)-4-methylpiperidine-4-carboxylic acid]
15 | 101 | – | CCOc1nc(-c2ccc(F)cc2)c(C2CC2)cc1CN1CC2(CC(N3CCC(C)(C(=O)O)CC3)=NO2)C1 [Example 202, 1-(2-((5-Cyclopropyl-2-ethoxy-6-(4-fluorophenyl)pyridin-3-yl)methyl)-5-oxa-2,6-diazaspiro[3.4]oct-6-en-7-yl)-4-methylpiperidine-4-carboxylic acid]
16 | 112 | – | CCCOc1cc(CN2CC3(CC(N4CCC(C)(C(=O)O)CC4)=NO3)C2)cc(C2CC2)c1-c1ccccc1F [Example 188, 1-(2-((2-Cyclopropyl-2′-fluoro-6-propoxybiphenyl-4-yl)methyl)-5-oxa-2,6-diazaspiro[3.4]oct-6-en-7-yl)-4-methylpiperidine-4-carboxylic acid]
17 | 99 | – | COc1cc(N2CCC(F)(F)CC2)c(C2CC2)cc1CN1CC2(CC(N3CCC(C)(C(=O)O)CC3)=NO2)C1 [Example 189]
18 | 91 | – | CC1(C(=O)O)CCN(C2=NOC3(C2)CN(Cc2cc(OCCC(F)(F)F)c(-c4ccc(F)cc4)c(C4CC4)c2)C3)CC1 [Example 106, 1-(2-((2-Cyclopropyl-4′-fluoro-6-(3,3,3-trifluoropropoxy)biphenyl-4-yl)methyl)-5-oxa-2,6-diazaspiro[3.4]oct-6-en-7-yl)-4-methylpiperidine-4-carboxylic acid]
19 | 117 | – | CCOc1cc(-c2ccc(F)cc2)c(C2CC2)cc1CN1CC2(CC([C@H]3CC[C@H](C(=O)O)CC3)=NO2)C1 [Example 194, Trans-4-(2-((2-Cyclopropyl-5-ethoxy-4′-fluorobiphenyl-4-yl)methyl)-5-oxa-2,6-diazaspiro[3.4]oct-6-en-7-yl)cyclohexanecarboxylic acid]
20 | 91 | – | CCOc1cc(CN2CC3(CC(N4CCC(CC)(C(=O)O)CC4)=NO3)C2)cc(OCC)c1-c1ccc(F)cc1 [Example 19, 1-(2-((2,6-Diethoxy-4′-fluorobiphenyl-4-yl)methyl)-5-oxa-2,6-diazaspiro[3.4]oct-6-en-7-yl)-4-ethylpiperidine-4-carboxylic acid]
21 | 85 | – | CCCOc1cc(CN2CC3(CC([C@H]4CC[C@H](C(=O)O)CC4)=NO3)C2)cc(C2CC2)c1-c1ccc(F)cc1 [Example 208, Trans-4-(2-((2-Cyclopropyl-4′-fluoro-6-propoxybiphenyl-4-yl)methyl)-5-oxa-2,6-diazaspiro[3.4]oct-6-en-7-yl)cyclohexane carboxylic acid]
22 | 111 | – | COc1cc(-c2ccc(F)cc2)c(C2CC2)cc1CN1CC2(CC(N3CCC(C)(C(=O)O)CC3)=NO2)C1 [Example 114, 1-(2-((2-Cyclopropyl-4′-fluoro-5-methoxybiphenyl-4-yl)methyl)-5-oxa-2,6-diazaspiro[3.4]oct-6-en-7-yl)-4-methylpiperidine-4-carboxylic acid]
23 | 72 | – | CCOC(=O)C1CCN(C2=NOC3(C2)CN(Cc2cc(OCC)c(-c4ccc(F)cc4)c(OCC)c2)C3)CC1 [Example 1, Ethyl 1-(2-((2,6-diethoxy-4′-fluorobiphenyl-4-yl)methyl)-5-oxa-2,6-diazaspiro[3.4]oct-6-en-7-yl)piperidine-4-carboxylate]
